What all share (type): cell-based, human
Data set [1] has as its system hPDCs. Briefly: Notch/DLL1 signaling in nerve/neuron induction of hPDCs. As to the method:
(§1) Quantitative RT-PCR: Total RNA was isolated from cells using TRizol (Invitrogen). cDNA was synthesized from 1 μg of total RNA using Superscript II reverse transcriptase, Oligo-d(T) 12-18 primer, DTT, and dNTPs according to the manufacturer's protocol. RT-PCR was performed by using a Pre-Mix kit (Bioneer). A PCR product was electrophoresed on a 2% agarose gel using RedGel (Biotium, Inc), and visualized by a UV-transilluminator.
To suppress FGF4 downstream signaling, hPDCs were cultured for 1 hour in a 10% FBS-supplemented alpha-MEM medium pretreated with or without 5 μM of ERK-inhibiting U0126 or 10 μM of JNK-inhibiting SP600125 (Calbiochem) in dimethyl sulfoxide (DMSO), and then stimulated with 25 ng/mL FGF4 for 3 days. To analyze suppression of Notch signaling, […] were in cultured for 1 hour in a 10% FBS-supplemented alpha-MEM medium pretreated with or without 50 μM of Notch-inhibiting DAPT (N—[N-(3,5-difluorophenacetyl)-1-alanyl]-S-phenylglycine t-butyl ester, Sigma), and then stimulated with 25 ng/mL FGF4 for 3 days.

In data set [2] the test system is hPDCs. Briefly: Suppression of FGF4 downstream signaling (ERK, JNK) in hPDCs. As to the method:
[…] To analyze suppression of Notch signaling, ASCs were in cultured for 1 hour in a 10% FBS-supplemented alpha-MEM medium pretreated with or without 50 μM of Notch-inhibiting DAPT (N—[N-(3,5-difluorophenacetyl)-1-alanyl]-S-phenylglycine t-butyl ester, Sigma), and then stimulated with 25 ng/mL FGF4 for 3 days.
Cells were first fixed in 4% PFA at room temperature for 15 minutes, and then permeabilized with 0.1% Triton X-100 for 20 minutes, followed by blocking with 10% normal goat serum (NGS). The following primary antibodies were used: anti-neuron classIII β-tubulin (Tuji), -Nestin (Covance), -Ki-67 (Novocastra), -SOX2, -NANOG, KLF4, Brachyury/Bry (all from Abcam), OCT3/4, GATA4 (all from Santa Cruz). Cells were incubated with Alexa Fluor 488 or 594-conjugated antibody (Molecular Probes) at room temperature for 1 hour, and to examine nuclei, cells were stained with 4′, 6-diamino-2-phenylindole (DAPI, 2 mg/mL in PBS). A cover-slip was sealed to a glass slide. Cells were visualized by a fluorescence microscope or a confocal fluorescence microscope (LSM 510 confocal microscope, Zeiss).

Data set [3] concerns TGF-β1 mRNA. Briefly: TGF-β1 gene silencing by siRNA in PDCs. From the text: Using the human nucleotide sequences for TGF-β1 mRNA obtained from GenBank (GI:260655621) and referring to the design strategy of siRNA, two pairs of 21-bp reverse repeat sequences targeting TGF-β1 mRNA were synthesized by Bioneer (Seoul, Korea). siRNA targeted forward: 5′. CAGAGUACACACAGCAUAU-3′(1243-1261) (SEQ ID NO: 31); reverse, 5′-AUAUGCUGUGUGUACUCUG-3′(1261-1243) (SEQ ID NO: 32) of the TGF-β coding sequence. siRNA (at a final concentration of 100 pmol) was transfected with Upofectamine 2000 (Invitrogen, Gaithersburg, Md.) according to the manufacturer's instructions. The efficacy of TGF-β1 gene silencing was assessed by quantitative real-time PCR and Western blotting.

Data set [4] relates to hPDCs. In words: Neural induction of hPDCs by FGF4. Conditions: 3 days. As to the method:
as §1
Immunoblotting analysis: Cells were washed with cold PBS, and lysed with a lysis buffer containing a protease inhibitor cocktail (Pierce). A total cell lysate was normalized with a Bradford reagent (Bio-Rad), and 30˜50 μg of the cell lysate was applied to 8˜12% SDS-PAGE and transferred onto a PVDF membrane (Milipore). The membrane was blocked with TBS-T (50 mM Tris-HCl, pH 7.6, 150 mM NaCl, 0.05% Tween-20) containing 5% skim milk (Becton Dickinson), and examined with respective antibodies. An immune reaction was performed by using an ECL Western Blotting system (Millipore, Amersham). […]
Cells were first fixed in 4% PFA at room temperature for 15 minutes, and then permeabilized with 0.1% Triton X-100 for 20 minutes, followed by blocking with 10% normal goat serum (NGS). […] Cells were visualized by a fluorescence microscope or a confocal fluorescence microscope (LSM 510 confocal microscope, Zeiss).

Consider `C[C@H](NC(=O)Cc1cc(F)cc(F)c1)C(=O)N[C@H](C(=O)OC(C)(C)C)c1ccccc1` [DAPT, N—[N-(3,5-difluorophenacetyl)-1-alanyl]-S-phenylglycine t-butyl ester], for which, in data set [1] (compared with DMSO-treated cells, HD culture with FGF4), the “DLL1, Nestin, and TUJ1 gene expression” value is “significantly low levels”.

Regarding `Oc1c2ccccc2c2c3c(cccc13)N=N2` [SP600125], the “% Ki-67 cells in total DAPI+ cells” value in data set [2] (SP600125) stood at 37.53±1.89%. Further, the “Nestin+ total cells” value in data set [2] (SP600125, FGF4, 72 hours) is listed as 48.47±3.07.

“TGF-β siRNA: siRNA targeting TGF-β1 mRNA, SEQ ID NO: 31 and 32, synthesized by Bioneer (chain 1 CAGAGUACACACAGCAUAU; chain 2 AUAUGCUGUGUGUACUCUG; listed as RNA, chemistry not given here)”: the “PEDF and Ang-1 expressions” value in data set [3] (after TGF-β siRNA transfection) was “no changes”. In data set [3] (quantitative real-time PCR, compared with control PDCs), the “decrease of TGF-β expression” value was 80-90%.

On to `N#CC(=C(/N)Sc1ccccc1N)/C(C#N)=C(\N)Sc1ccccc1N` [U0126], for which the “% Ki-67+ cells in total DAPI+ cells” value in data set [2] (5 mM U0216) worked out at 64.46±2.14%. In addition, the “Nestin+ total cells” value in data set [2] (5 mM U0216, FGF4, 72 hours) worked out at 47.61±3.46. Besides, in data set [2] (FGF4-treated hPDCs, immunoblotting), the Nestin protein levels result is given as “decrease in Nestin protein levels”.

B1: FGF4: growth factor (R&D Systems) tested for neural induction of hPDCs (protein, UniProt P08620 31-206, looked up)
Fibroblast growth factor 4: APTAPNGTLEAELERRWESLVALSLARLPVAAQPKEAAVQSGAGDYLLGIKRLRRLYCNVGIGFHLQALPDGRIGGAHADTRDSLLELSPVERGVVSIFGVASRFFVAMSSKGKLYGSPFFTDECTFKEILLPNNYNAYESYKYPGMFIALSKNGKTKKGNRVSPTMKVTHFLPRL
B1: in data set [4] (25 ng/mL FGF4 vs 10 ng/mL EGF or 10 ng/mL bFGF), the “expression levels of Nestin and Musashi1” value is given as “much higher”. For the same molecule, in data set [4] (25 ng/mL among 10, 25, 50 ng/mL), the “mRNA expression level of Nestin” value was “highest mRNA expression level of Nestin”.

B2: DLL1-FLAG: recombinant DLL1 protein (protein, UniProt O00548 18-545, looked up)
extracellular domain: QVWSSGVFELKLQEFVNKKGLLGNRNCCRGGAGPPPCACRTFFRVCLKHYQASVSPEPPCTYGSAVTPVLGVDSFSLPDGGGADSAFSNPIRFPFGFTWPGTFSLIIEALHTDSPDDLATENPERLISRLATQRHLTVGEEWSQDLHSSGRTDLKYSYRFVCDEHYYGEGCSVFCRPRDDAFGHFTCGERGEKVCNPGWKGPYCTEPICLPGCDEQHGFCDKPGECKCRVGWQGRYCDECIRYPGCLHGTCQQPWQCNCQEGWGGLFCNQDLNYCTHHKPCKNGATCTNTGQGSYTCSCRPGYTGATCELGIDECDPSPCKNGGSCTDLENSYSCTCPPGFYGKICELSAMTCADGPCFNGGRCSDSPDGGYSCRCPVGYSGFNCEKKIDYCSSSPCSNGAKCVDLGDAYLCRCQAGFSGRHCDDNVDDCASSPCANGGTCRDGVNDFSCTCPPGYTGRNCSAPVSRCEHAPCHNGATCHERGHRYVCECARGYGGPNCQFLLPELPPGPAVVDLTEKLEGQGGPFPW
modifications: extracellular domain FLAG tag
notes: recombinant DLL1 protein
Turning to B2, the “mRNA levels of DLL1, Nestin, and TUJ1” value in data set [1] (three days with FGF4 in hPDC cultures) was “up-regulated”.

Source of the values: US20180280447A1, “PLACENTA-DERIVED CELLS EXCRETING C3 OR C1R COMPLEMENT AND COMPOSITION CONTAINING SAME” (SUNGKWANG MEDICAL FOUNDATION, priority 2014, published 2018).
